Test results from patent publication US20230266302A1, “SYNTHESIS AND USE OF N-BENZYL SULFONAMIDES” (THE UNIVERSITY OF TULSA, priority 2020, published 2023).

Key:
Experiment in all cases: ATP level assay (CellTiter-Glo), percent of control
Type in all cases: cell-based
[1] = test system: BxPC3 (pancreatic cancer); settings: two hour incubation; for activity at 100 µM: Homo sapiens, BXPC-3, 2 h, compound alone, control DMSO, read-out: POC (percent of control) BxPC3
Source text: (§1) In the present method, the method of using the available assays has been modified to measure the short-term effect of compounds of interest on ATP levels in the cells. […] In the modified method, the control and test cells are initially treated with the metabolic inhibitor for a period of about thirty minutes to about four hours. Typically, the treatment of the cells with the metabolic inhibitor is for one hour prior to adding the compound to be screened for anti-cancer properties. However, simultaneous treatment with the metabolic inhibitor and the compound being screened should provide satisfactory results. […] ATP synthesis in cells occurs over multiple biochemical pathways. These pathways are very responsive to metabolic inhibitors and/or changes in available nutrients. By incorporating a metabolic inhibitor which is known to impact certain pathways, the disclosed method provides for measurement of a compound's direct effects on the remaining metabolic pathways available for ATP synthesis in the cell.
(§2) Following treatment of the control and test cells with the metabolic inhibitor, the method calls for addition of the compound to be screened for anti-cancer properties to the cells. Following addition of the compound of interest, the assay is allowed to continue for about one hour to about four hours or depending on the luminescing agent up to eighteen hours. However, approximately 60 minutes will be sufficient to determine the ATP inhibiting effect of the compound to be screened on the cells. Following completion of the selected time period, the ATP level within the cell is determined. ATP levels can be determined by luminescence according to standard measuring procedures, i.e. the luminescence level of the assay from the living cells treated with the two component composition is compared to the luminescence level of the assay from the living cells without the two component composition, i.e., the control experiment. Thus, the ATP levels are determined without killing the cells during the incubation of the cells in the presence of the compound of interest. As a result, the measured reduction in ATP level corresponds directly to the inhibition of the metabolic pathways uninhibited by the metabolic blocker.
(§3) A wide variety of ATP luminescing detection reagents are available commercially. So long as the reagent produces a luminescence in the presence of ATP, the reagent will be suitable for use in the present method. Suitable reagents include but are not limited to any ATP dependent luciferase such as but not limited to firefly luciferase, other modified luciferase based reagents, i.e. luciferase derivatives. According to the rapid method for determining the anti-cancer activity of a compound, a sample of living cells is distributed across a number of testing wells. Typically, 96-well plates are used; however, the number of wells is not critical to the current method. When using a 96-well plate the number of living cells will commonly be about 20,000. The sample wells contain a cell growth medium to promote cell health and growth and an additive to prevent bacterial contamination of the wells. One common example of the cell growth medium is DMEM with 10% FBS as described above. One example of the additive to prevent bacterial contamination is a solution of penicillin G and streptomycin referred to commonly as Pen-Strep. The Pen-Strep solution typically contains 5000 units of penicillin G and 5000 micrograms of streptomycin. Thus, the rapid determination of anti-cancer compounds can be carried out using the following method. • The desired number of cells are distributed in a 96-well plate containing 100 μL DMEM plus 10% FBS with optional Pen-Strep. • After 24 hours, cells are treated with the compound of interest or a 5% solution of dimethyl sulfoxide (DMSO) in water as a control. • The time period for exposure to the compound of interest and the DMSO control will vary depending on the luminescing detection reagent. […]

[2] = test system: H293 (kidney cancer); settings: two hour incubation; for activity at 100 µM: 2 h, compound alone, control DMSO, read-out: POC (percent of control) H293
Source text: as §1, §2, §3

[3] = test system: HDF (normal cells); settings: two hour incubation; for activity at 100 µM: 2 h, compound alone, control DMSO, read-out: POC (percent of control) HDF
Source text: as §1, §2, §3

[4] = test system: HeLa (cervical cancer); settings: two hour incubation; for activity at 100 µM: Homo sapiens, HeLa, 2 h, compound alone, control DMSO, read-out: POC (percent of control) HeLa
Source text: as §1, §2, §3

[5] = test system: MCF10A (non-cancerous breast); settings: two hour incubation; for activity at 100 µM: Homo sapiens, MCF-10A, 2 h, compound alone, control DMSO, read-out: POC (percent of control) MCF10A
Source text: as §1, §2, §3

[6] = test system: MCF7 (breast cancer); settings: two hour incubation; for activity at 100 µM: Homo sapiens, MCF7, 2 h, compound alone, control DMSO, read-out: POC (percent of control) MCF7
Source text: as §1, §2, §3

[7] = test system: MDA-MB (breast cancer); settings: two hour incubation; for activity at 100 µM: 2 h, compound alone, control DMSO, read-out: POC (percent of control) MDA-MB
Source text: as §1, §2, §3

[8] = test system: NCI-H196 (lung cancer); settings: two hour incubation; for activity at 100 µM: NCI-H196, 2 h, compound alone, control DMSO, read-out: POC (percent of control) NCI-H196
Source text: as §1, §2, §3

[9] = test system: PC3 (prostate cancer); settings: two hour incubation; for activity at 100 µM: 2 h, compound alone, control DMSO, read-out: POC (percent of control) PC3
Source text: as §1, §2, §3

[10] = test system: SkBr3 (breast cancer); settings: two hour incubation; for activity at 100 µM: Homo sapiens, SK-BR-3, 2 h, compound alone, control DMSO, read-out: POC (percent of control) SkBr3
Source text: as §1, §2, §3

[11] = test system: T47D (breast cancer); settings: two hour incubation; for activity at 100 µM: Homo sapiens, T47D, 2 h, compound alone, control DMSO, read-out: POC (percent of control) T47D
Source text: as §1, §2, §3

[12] = compound 100 uM + 2DG (about 10-20 mM)
[13] = compound 100 uM + rotenone (approximately 1.25 μM)

| Compound | activity at 100 µM [1] [%] | POC (percent of control) BxPC3 [1, 12] | POC (percent of control) BxPC3 [1, 13] | activity at 100 µM [2] [%] | POC (percent of control) H293 [2, 12] | POC (percent of control) H293 [2, 13] | activity at 100 µM [3] [%] | POC (percent of control) HDF [3, 12] | POC (percent of control) HDF [3, 13] | activity at 100 µM [4] [%] | POC (percent of control) HeLa [4, 12] | POC (percent of control) HeLa [4, 13] | activity at 100 µM [5] [%] | POC (percent of control) MCF10A [5, 12] | POC (percent of control) MCF10A [5, 13] | activity at 100 µM [6] [%] | POC (percent of control) MCF7 [6, 12] | POC (percent of control) MCF7 [6, 13] | activity at 100 µM [7] [%] | POC (percent of control) MDA-MB [7, 12] | also measured |
| --- | --- | --- | --- | --- | --- | --- | --- | --- | --- | --- | --- | --- | --- | --- | --- | --- | --- | --- | --- | --- | --- |
| Cn1ncc2cc(CNS(=O)(=O)c3ccc(Cl)cc3)ccc21 [Compound 10, 4-chloro-N-[(1-methyl-1H-indazol-5-yl)methyl]benzenesulfonamide] | 66.3 | 62.9% of control | 54.4% of control | 106 | 84% of control | 70.8% of control | 88.6 | 92.7% of control | 82.2% of control | 106 | 91.3% of control | 85.5% of control | 92 | 100.4% of control | 83.5% of control | 115 | 121.2% of control | 89.4% of control | 94.1 | 86.7% of control | POC (percent of control) MDA-MB [7, 13]: 87.4% of control; activity at 100 µM [8]: 106%; POC (percent of control) NCI-H196 [8, 12]: 90.8% of control; POC (percent of control) NCI-H196 [8, 13]: 103.7% of control; activity at 100 µM [9]: 115%; POC (percent of control) PC3 [9, 12]: 97.8% of control; POC (percent of control) PC3 [9, 13]: 98.7% of control; activity at 100 µM [10]: 90.8%; POC (percent of control) SkBr3 [10, 12]: 98% of control; POC (percent of control) SkBr3 [10, 13]: 107.3% of control; activity at 100 µM [11]: 63.5%; POC (percent of control) T47D [11, 12]: 76.6% of control; POC (percent of control) T47D [11, 13]: 91.4% of control |
| Cn1cc(CNS(=O)(=O)c2ccc(Cl)cc2)cn1 [Compound 11, 4-chloro-N-[(1-methyl-1H-pyrazol-4-yl)methyl]benzenesulfonamide] | 99.2 | 83.8% of control | 78% of control | 92.8 | 87.4% of control | 88.3% of control | 77.4 | 101.3% of control | 89.8% of control | 103 | 117.6% of control | 96.4% of control | 95.4 | 95.8% of control | 93.7% of control | 118 | 98.4% of control | 94.6% of control | 95.3 | 82.4% of control | POC (percent of control) MDA-MB [7, 13]: 97.9% of control; activity at 100 µM [8]: 95.2%; POC (percent of control) NCI-H196 [8, 12]: 114.7% of control; POC (percent of control) NCI-H196 [8, 13]: 88.9% of control; activity at 100 µM [9]: 113%; POC (percent of control) PC3 [9, 12]: 94.6% of control; POC (percent of control) PC3 [9, 13]: 96.1% of control; activity at 100 µM [10]: 101%; POC (percent of control) SkBr3 [10, 12]: 99.7% of control; POC (percent of control) SkBr3 [10, 13]: 95.3% of control; activity at 100 µM [11]: 59.3%; POC (percent of control) T47D [11, 12]: 90.4% of control; POC (percent of control) T47D [11, 13]: 99.6% of control |
| COc1ncccc1CNS(=O)(=O)c1ccc(C)cc1 [Compound 12, N-[(2-methoxypyridin-3-yl)methyl]-4-methylbenzenesulfonamide] | 79.8 | 57% of control | 61% of control | 94.4 | 85% of control | 74.9% of control | 77.8 | 90.9% of control | 70.4% of control | 98 | 78.5% of control | 87.6% of control | 98.6 | 88.1% of control | 86.1% of control | 97.3 | 90.8% of control | 92.1% of control | 87.2 | 83.9% of control | POC (percent of control) MDA-MB [7, 13]: 105.7% of control; activity at 100 µM [8]: 83.5%; POC (percent of control) NCI-H196 [8, 12]: 117% of control; POC (percent of control) NCI-H196 [8, 13]: 81.8% of control; activity at 100 µM [9]: 82.1%; POC (percent of control) PC3 [9, 12]: 89.9% of control; POC (percent of control) PC3 [9, 13]: 80.3% of control; activity at 100 µM [10]: 91.6%; POC (percent of control) SkBr3 [10, 12]: 73.5% of control; POC (percent of control) SkBr3 [10, 13]: 85.1% of control; activity at 100 µM [11]: 59.8%; POC (percent of control) T47D [11, 12]: 58.1% of control; POC (percent of control) T47D [11, 13]: 95.2% of control |
